In patent publication US6593140B1, “Animal cell culture” (Lonza Group, AG, priority 1992, dated 2003):

Key:
[1] = tested on: recombinant GS-myeloma cell lines [mouse NS/O]; test: Growth and productivity of recombinant GS-myeloma NS/O cell lines in suspension culture; assay type: cell-based; details: for PEAK CELL DENSITY: 0.2 mg/l ferric ammonium citrate with 5 μM tropolone or 1 mg/l transferrin
Source text: The efficacy of using tropolone as a transferrin replacement was further investigated using recombinant GS-myeloma cell lines [mouse NS/O] expressing humanised antibodies using the glutamine synthetase (GS) expression system, [Bebbington et al., Bio/Technology, 10, 169-175; European Patent Specification No. 256055].

[2] = tested on: mouse hybridoma cell line; test: Growth of mouse hybridoma cells in transferrin-free medium with iron chelators, static 24-well culture, 3 days; assay type: cell-based
Protocol: A mouse hybridoma cell line previously subcultured in a serum-free medium containing 1 μg/ml human transferrin was centrifuged and resuspended in transferrin-free medium twice. […] 100×concentrates of the iron chelators to be tested (8-hydroxyquinoline, tropolone, mimosine, maltol or picolinic acid) were prepared in water and filter sterilised. 10 μl of each iron chelator was dispersed into wells of a 24 well costar plate and then 1 ml of cell suspension added. […] Control wells contained either 10 μl water (negative control) or 10 μl of 100 μg/ml human transferrin solution (positive control). Plates were incubated for 3 days in a humidified incubator under a 5% CO2—95% air atmosphere at 36.5° C. under static conditions. After 3 days samples of dispersed cell suspensions from individual wells were analysed using a Coulter Multisizer to determine cell concentration.

animal cells = test: Support of growth in agitated animal cell culture at low iron concentration; assay type: cell-based
[3] = tested on: mouse myeloma cell line [GS-NSO]; test: Growth of GS-NSO myeloma cells in protein-free LS1 medium, shake flasks; assay type: cell-based; details: 5 μM tropolone, FIG. 5
Protocol: The LS1 medium additionally contained 2-hydroxypropyl-β-cyclodextrin [HPB; 1.2 g/l] complexed with cholesterol and fatty acids [prepared before addition to LS1 by dissolving HPB ([…]) in water and adding to an equal volume of a supplement containing cholesterol and the fatty acids previously dissolved in absolute alcohol, then agitating for 3 hours prior to centrifugation and filtering].

[4] = tested on: mouse hybridoma cell line; details: increasing concentrations up to 10 mg/l, transferrin-free medium, 3 days, FIG. 2A
Protocol: A mouse hybridoma cell line, previously subcultured in serum free medium containing human transferrin, was centrifuged and resuspended at 1.5×10^5 cells/ml in either transferrin-free or transferrin-containing serum-free medium. […] The flasks were gassed in 5% CO2—95% air atmosphere, sealed and incubated either static or on an orbital reciprocal shaking platform (120 rpm) at 36.5° C. for 3 days. Samples were then removed and cell concentration was determined by haemocytometry.

[5] = tested on: mouse hybridoma cell line; details: 5 μM tropolone
Protocol: Flasks were gassed with an atmosphere of 5% CO2—95% air and incubated on an orbital shaking platform (120 rpm) at 36.5° C. for 3 days.
After 3 days samples were withdrawn from flasks and cell concentration determined using a Coulter multisizer.

[6] = 5 μM tropolone vs 1 mg/l transferrin, 0.2 mg/l ferric ammonium citrate, three cell lines

Question: With “TRANSFERRIN: human transferrin, natural iron-chelating protein used as positive control” as the compound, how does the “PEAK CELL DENSITY” value ([1]; Cell line A) read?
Answer: 1.3e+06 mL⁻¹

Question: What about the “PEAK CELL DENSITY” value ([1]; Cell line B) of the same compound?
Answer: 1.46e+06 mL⁻¹

Question: What about the “PEAK CELL DENSITY” value ([1]; Cell line C) of the same compound?
Answer: 2.62e+06 mL⁻¹

Question: Which “support of cell growth (cell concentration after 3 days)” value ([2]; 50 μM, 0.1 mg/l ferric ammonium citrate, FIG. 1B) does the source give for `O=C(O)c1ccccn1` [picolinic acid, reference compound] here?
Answer: much less effective

Question: For `O=C(O)CC(O)(CC(=O)O)C(=O)O` [citrate], which “support of growth in agitated cell culture” value (animal cells) is on record?
Answer: has failed

Question: How did the “support of cell growth (cell concentration after 3 days)” value ([2]; 100 μM, 0.1 mg/l ferric ammonium citrate, FIG. 1B) turn out when `CC(=O)CC(C)=O` [acetylacetone, reference compound] was run?
Answer: much less effective

Question: Which “support of growth in agitated cell culture” value (animal cells) does the source give for `O=C(O)[C@H](O)[C@@H](O)[C@H](O)[C@H](O)CO` [gluconate] here?
Answer: has failed

Question: Which results are given for `O=c1cccccc1O` [tropolone, 2-hydroxy-2,4,6-cycloheptatrien-1-one]?
Answer: growth rates compared with transferrin medium [1, 6]: similar; peak viable cell concentration compared with transferrin medium [1, 6]: similar; PEAK CELL DENSITY ([1]; Cell line A): 1.51e+06 mL⁻¹; PEAK CELL DENSITY ([1]; Cell line B): 1.49e+06 mL⁻¹; PEAK CELL DENSITY ([1]; Cell line C): 3.17e+06 mL⁻¹; support of cell growth ([3]; 0.2 mg/l ferric ammonium citrate, LS1 medium with HPB or BSA carrier): able to support the growth of both cultures; support of cell growth (cell concentration after 3 days) ([2]; 3 μM tropolone, 0.36 μM iron (0.1 mg/l ferric ammonium citrate), transferrin-free, FIG. 1A): as effective as 1 μg/ml of human transferrin at supporting cell growth; support of cell growth (cell concentration after 3 days) ([2]; 5 μM, 0.1 mg/l ferric ammonium citrate, FIG. 1B): effective at supporting cell growth; support of growth in agitated cell culture (animal cells): can support growth

Question: For “2-hydroxypropyl-β-cyclodextrin [reference compound]”, which “performance as carrier for cholesterol and fatty acids (cell growth)” value ([3]; 1.2 g/l HPB in LS1 medium vs bovine serum albumin) is on record?
Answer: an effective replacement for bovine serum albumin

Question: With ferric ammonium citrate as the compound, how does the “effect on cell concentration in static culture” value [4] read?
Answer: support increasing cell concentrations

Question: And the “time to death of myeloma cells (failed to thrive)” value ([1]; 0.2 mg/l ferric ammonium citrate in the absence of either tropolone or transferrin)?
Answer: ≤ 48 h

Question: And the growth yield ([5]; data not shown)?
Answer: 3.3×10^7 cells/μg ferric ammonium citrate

Question: What about the “concentration range giving maximum biomass” value ([5]; shaken 120 rpm, 3 days) of the same compound?
Answer: 0.075 to 1 mg/L
